Source: ChEMBL document CHEMBL4715742, “Design, synthesis and cytotoxic activities of novel 2,5-diketopiperazine derivatives” (Eur J Med Chem, 2016)

What was measured:
[1] = system: HT-29; test: Cytotoxicity against human HT-29 cells assessed as reduction in cell viability measured after 72 hrs by CCK8 assay; format: functional, cell-based
[2] = system: U-937; test: Induction of apoptosis in human U-937 cells assessed as viable cells at 0.015 uM measured after 24 hrs by annexinV/FITC-propidium iodide staining based flow cytometry (reference value: 95 to 95.1 %); format: functional; settings: read-out: Activity
[3] = system: U-937; test: Induction of apoptosis in human U-937 cells assessed as late apoptotic cells at 0.015 uM measured after 24 hrs by annexinV/FITC-propidium iodide staining based flow cytometry (reference value: 2.18 to 2.22 %); format: functional
[4] = system: U-937; test: Induction of apoptosis in human U-937 cells assessed as apoptotic ratio at 0.015 uM measured after 48 hrs by annexinV/FITC-propidium iodide staining based flow cytometry (reference value: 5.2 +/- 0.2 %); format: functional
[5] = system: U-937; test: Induction of apoptosis in human U-937 cells assessed as late apoptotic cells at 0.015 uM measured after 48 hrs by annexinV/FITC-propidium iodide staining based flow cytometry (reference value: 3.27 to 3.41 %); format: functional
[6] = system: U-937; test: Induction of apoptosis in human U-937 cells assessed as necrotic cells at 0.015 uM measured after 48 hrs by annexinV/FITC-propidium iodide staining based flow cytometry (reference value: 0.794 to 0.955 %); format: functional
[7] = system: HeLa; test: Cytotoxicity against human HeLa cells assessed as reduction in cell viability measured after 72 hrs by CCK8 assay; format: functional, cell-based
[8] = system: U-937; test: Induction of apoptosis in human U-937 cells assessed as apoptotic ratio at 0.015 uM measured after 24 hrs by annexinV/FITC-propidium iodide staining based flow cytometry (reference value: 3.7 +/- 0.3 %); format: functional
[9] = system: U-937; test: Induction of apoptosis in human U-937 cells assessed as early apoptotic cells at 0.015 uM measured after 48 hrs by annexinV/FITC-propidium iodide staining based flow cytometry (reference value: 1.78 to 1.88 %); format: functional
[10] = system: U-937; test: Cytotoxicity against human U-937 cells assessed as reduction in cell viability measured after 72 hrs by CCK8 assay; format: functional, cell-based
[11] = system: U-937; test: Induction of apoptosis in human U-937 cells assessed as viable cells at 0.015 uM measured after 48 hrs by annexinV/FITC-propidium iodide staining based flow cytometry (reference value: 93.7 to 94.2 %); format: functional; settings: read-out: Activity
[12] = system: U-937; test: Induction of apoptosis in human U-937 cells assessed as early apoptotic cells at 0.015 uM measured after 24 hrs by annexinV/FITC-propidium iodide staining based flow cytometry (reference value: 1.28 to 1.68 %); format: functional
[13] = system: HL-60; test: Cytotoxicity against human HL-60 cells assessed as reduction in cell viability measured after 72 hrs by CCK8 assay; format: functional, cell-based
[14] = system: K562; test: Cytotoxicity against human K562 cells assessed as reduction in cell viability measured after 72 hrs by CCK8 assay; format: functional, cell-based
[15] = system: A549; test: Cytotoxicity against human A549 cells assessed as reduction in cell viability measured after 72 hrs by CCK8 assay; format: functional, cell-based
[16] = system: DU-145; test: Cytotoxicity against human DU-145 cells assessed as reduction in cell viability measured after 72 hrs by CCK8 assay; format: functional, cell-based
[17] = system: U-937; test: Induction of apoptosis in human U-937 cells assessed as necrotic cells at 0.015 uM measured after 24 hrs by annexinV/FITC-propidium iodide staining based flow cytometry (reference value: 1.12 to 1.48 %); format: functional
[18] = system: MCF7; test: Cytotoxicity against human MCF7 cells assessed as reduction in cell viability measured after 72 hrs by CCK8 assay; format: functional, cell-based
[19] = Homo sapiens, HT-29, 72 h, read-out: IC50
[20] = Homo sapiens, HeLa, 72 h, read-out: IC50
[21] = Homo sapiens, U-937, 72 h, read-out: IC50
[22] = Homo sapiens, HL-60, 72 h, read-out: IC50
[23] = Homo sapiens, K562, 72 h, read-out: IC50
[24] = Homo sapiens, A549, 72 h, read-out: IC50
[25] = Homo sapiens, DU-145, 72 h, read-out: IC50
[26] = Homo sapiens, MCF7, 72 h, read-out: IC50

SMILES | IC50 [1, 19] [µM] | IC50 [7, 20] [µM] | IC50 [10, 21] [µM] | IC50 [13, 22] [µM] | IC50 [14, 23] [µM] | IC50 [15, 24] [µM] | IC50 [16, 25] [µM] | IC50 [18, 26] [µM] | IC50 ([15]; a549) | IC50 ([16]; du-145) | IC50 ([1]; ht-29) | IC50 ([7]; hela) | IC50 ([10]; u-937) | IC50 ([13]; hl-60) | IC50 ([14]; k562) | IC50 ([18]; mcf7) | also measured
CC(C)(C)c1[nH]cnc1/C=c1\[nH]c(=O)/c(=C/c2ccccc2)[nH]c1=O [PLINABULIN] | 0.013 | 0.0084 | 0.0068 | 0.0148 | 0.0063 | 0.0055 | 0.014 | 0.0126 |  |  |  |  |  |  |  |  | viability at 0.015 µM [2]: 66.9%; Activity [3]: 19.3%; Activity [4]: 38.6%; Activity [5]: 31.1%; Activity [6]: 1.99%; Activity [8]: 31.8%; Activity [9]: 6.44%; viability at 0.015 µM [11]: 58.3%; Activity [12]: 11.7%; Activity [17]: 1.13%
C=CCn1c(=O)/c(=C/CCC)[nH]c(=O)/c1=C/c1ccccc1OC | 28.9 | 21.4 | 6.4 | 20.4 | 8.6 |  |  | 11.1 | Not Active | Not Active |  |  |  |  |  |  | 
C=CCn1c(=O)/c(=C/CCCCCCC)[nH]c(=O)/c1=C/c1ccccc1OC |  |  |  |  |  |  |  |  | Not Active | Not Active | Not Active | Not Active | Not Active | Not Active | Not Active | Not Active | 
C=CCn1c(=O)/c(=C/c2cccc(Cl)c2Cl)[nH]c(=O)/c1=C/c1ccccc1OC | 3.2 | 1.6 | 0.5 | 2 | 0.9 | 2.3 | 4.2 | 2.1 |  |  |  |  |  |  |  |  | 
C=CCn1c(=O)/c(=C/CCCCCC)[nH]c(=O)/c1=C/c1ccccc1OC | 9.8 | 7 | 2.6 | 10.6 | 3.6 | 13.9 | 11.2 | 9.3 |  |  |  |  |  |  |  |  | 
C=CCn1c(=O)/c(=C/CC)[nH]c(=O)/c1=C/c1cccc(OC)c1 |  |  |  |  |  |  |  |  | Not Active | Not Active | Not Active | Not Active | Not Active | Not Active | Not Active | Not Active | 
